Consider one compound from patent US20240293423A1, “STAT DEGRADERS AND USES THEREOF” (Kymera Therapeutics, Inc., priority 2020, published 2024).

This assay deals with T1, STAT3 (Homo sapiens, UniProt P40763).
T1 construct: expressed in transfected cells; host or cells: A549
Description: STAT3 HiBiT degradation assay in transfected A549 cells. The note with it: 24 h compound incubation, Nano-Glo HiBiT lytic detection, read-out: Cell: STAT3 HiBit A549 degradation 24 h GMean External Abs-DC50. Format: cell-based. How it is done: Compound preparation and Cell seeding: The transfected A549 cells were harvested from dish into cell culture medium and cell numbers counted. Cells were diluted with culture medium to the desired density and 30 μL of cell suspension (about 2000 cells/well) were added into each well of a 384-well cell culture plate as designated and transferred into 37° C. 5% CO2 incubator for 24 h. Compounds were dissolved to 10 mM stock solution and 12 μL of the stock solution was transferred to a 384 LDV-plate. 3 fold, 10-point dilution was performed by transferring 4 μL compound into 8 μL DMSO using a TECAN (EVO200) liquid handler. 30 μL of diluted compound from compound source plate was transferred into the cell plate as designated by using Echo550 and transferred into 37° C. 5% CO2 incubator for 24 h.
Detection: Plates were removed from incubators and equilibrated at room temperature for 15 minutes. Nano-Glo Hibit Lytic Detection reagent (Promega Cat #N3040) was thawed and equilibrated to room temperature before the experiment. 30 μL of Nano-Glo Hibit Lytic Detection reagent was added into each well to be detected. The plates were held at room temperature for 10 min followed by reading on EnSpire.
Data analysis: The remaining activity was calculated following the formula: Remaining Activity (%)=100%×(Lumsample−LumNC)/(LumPC−LumNC). Calculate the IC50 by fitting the curve using Xlfit (v5.3.1.3), equation 201: fit=(A+((B−A)/(1+((x/C)^D)))); A: Botton; B: Top; C: IC50; and D: Slope.
The letter codes for STAT3 DC50 include: A (<0.05 μM), B (0.05-0.2 μM), C (0.2-1.0 μM), and D (>1.0 μM).
In general terms: With HiBiT, luminescence reflects the tagged protein that the partner subunit can reach.

Usually DC50 stands for the concentration at which degradation of the target reaches its halfway point.

T1 sequence (P40763 whole entry): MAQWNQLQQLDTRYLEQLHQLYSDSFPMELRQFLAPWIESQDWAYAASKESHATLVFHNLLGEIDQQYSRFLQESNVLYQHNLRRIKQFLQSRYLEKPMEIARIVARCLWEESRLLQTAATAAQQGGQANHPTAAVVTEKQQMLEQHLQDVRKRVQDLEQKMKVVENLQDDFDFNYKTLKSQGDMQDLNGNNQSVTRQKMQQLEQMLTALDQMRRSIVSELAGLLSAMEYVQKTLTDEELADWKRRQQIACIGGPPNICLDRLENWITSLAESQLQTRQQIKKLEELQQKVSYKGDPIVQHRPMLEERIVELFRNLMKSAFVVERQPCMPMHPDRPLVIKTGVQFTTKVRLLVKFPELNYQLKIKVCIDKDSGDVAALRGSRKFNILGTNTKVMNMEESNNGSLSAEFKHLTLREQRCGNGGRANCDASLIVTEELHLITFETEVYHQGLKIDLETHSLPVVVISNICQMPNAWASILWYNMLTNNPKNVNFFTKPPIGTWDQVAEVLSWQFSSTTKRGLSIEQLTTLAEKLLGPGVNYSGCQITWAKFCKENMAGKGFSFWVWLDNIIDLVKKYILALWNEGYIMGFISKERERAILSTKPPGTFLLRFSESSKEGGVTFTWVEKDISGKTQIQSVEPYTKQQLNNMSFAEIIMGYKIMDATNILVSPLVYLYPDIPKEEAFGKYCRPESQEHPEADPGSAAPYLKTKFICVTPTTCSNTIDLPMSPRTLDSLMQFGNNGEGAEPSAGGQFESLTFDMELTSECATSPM

Turning to `COC(=O)N1CC[C@H]2CC[C@@H](C(=O)N[C@@H](CCC(N)=O)C(=O)N[C@H](C(=O)N3CCC(CCCc4ccc5c(c4)n(C)c(=O)n5C4CCC(=O)NC4=O)CC3)C3CCCCC3)N2C(=O)[C@@H](NC(=O)c2cc3cc(C(F)(F)P(=O)(O)O)ccc3s2)C1` (stereo partly shown) [Compound I-15], the DC50 lay in the range of 200 to 1000 nM.
